Like-named read-outs stand apart in the source and are kept apart here.
Assays:
[1] = target: T1, human Bradykinin B1 receptor (Homo sapiens, UniProt P46663); test: Calcium flux Assay (FLIPR) with recombinant CHO-K1 cells expressing human Bradykinin B1 receptor, in presence (hB1 IC50) or absence (hB1 free IC50) of 0.1% BSA; type: cell-based
T1 construct: host or cells: CHO-K1
T1 sequence (P46663 1-353): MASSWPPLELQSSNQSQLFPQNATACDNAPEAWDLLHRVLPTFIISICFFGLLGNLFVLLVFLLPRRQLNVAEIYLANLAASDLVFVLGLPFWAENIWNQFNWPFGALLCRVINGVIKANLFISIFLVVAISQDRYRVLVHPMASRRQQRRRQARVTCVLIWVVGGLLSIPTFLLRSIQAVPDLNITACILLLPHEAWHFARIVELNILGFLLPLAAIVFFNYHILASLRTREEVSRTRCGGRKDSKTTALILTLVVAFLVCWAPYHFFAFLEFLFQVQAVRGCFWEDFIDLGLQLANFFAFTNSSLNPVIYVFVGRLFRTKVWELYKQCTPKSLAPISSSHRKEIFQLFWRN

[2] = target: T2, native human Bradykinin B1 receptor (Homo sapiens, UniProt P46663); test: Calcium flux Assay (FLIPR) with human fibroblasts expressing Bradykinin B1 receptor (hB1 IMR-90); type: cell-based; details: IMR-90 human fibroblasts expressing native Bradykinin B1 receptor
T2 construct: which express native human Bradykinin B1 receptor after induction with human IL-10; Coriell Institute; host or cells: IMR-90 human foetal lung fibroblasts, cytokine-induced
T2 sequence (P46663 1-353): T1 sequence (P46663 1-353)
Description: Calcium flux Assay (FLIPR) with human fibroblasts expressing Bradykinin B1 receptor (hB1 IMR-90)
The Calcium flux Assay was carried out utilising IMR-90 human foetal lung fibroblasts (American Type Culture Collection, Rockville, Md.; and Coriell Institute, Camden, N.J.), which express native human Bradykinin B1 receptor after induction with human […].
The fibroblasts were cultured in complete growth media comprised of Dulbecco's modified Eagle's medium (DMEM; Sigma) containing 10% foetal bovine serum, 4 mM L-glutamine, and 1% nonessential amino acids. The cells were maintained in a humidified atmosphere with 5% CO2 at 37° C. and were sub-cultured at a ratio of 1:3, every other day.
For the assay, IMR-90 fibroblasts were harvested using TrypLE Express (GIBCO/Invitrogen) and seeded into 384-well plates (Corning Cellbinding Surface, Cat. 3683) at a density of 15000 cells/well. The following day, cells were treated with 0.35 ng/mL human […] in 10% FBS/MEM for 3h to up-regulate Bradykinin B1 receptor. Induced cells were loaded with fluorescent calcium indicator by incubation with 2.5 μM Fluo-4/AM (Invitrogen) at 37° C., 5% CO2 for 2 h in the presence of 2.5 mM probenecid in 1% FBS/MEM. Extracellular dye was removed by washing with assay buffer (2.5 mM probenecid and 0.1% BSA in 20 mM HEPES/HBSS without bicarbonate or phenol red, pH 7.5). Compound examples were assayed at 8 concentrations in triplicate. After addition of compound examples to the cell plate and incubation for 30 min at 28° C., the addition of Bradykinin B1 agonist Lys-(Des-Arg)-Bradykinin (Bachem, Brackley) at a final concentration of EC90 was carried out on the FLIPR instrument while continuously monitoring Ca^2+-dependent fluorescence at 538 nm. A peptide antagonist Lys-(Des-Arg-Leu)-Bradykinin (Bachem, Brackley) at 20 µM was used to determine the full inhibition as control. IC50 values were determined by the same way described for the FLIPR assay with recombinant cells.

[3] = in absence of 0.1% BSA, read-out: hB1 free IC50
[4] = in presence of 0.1% BSA, read-out: hB1 IC50

Structure (SMILES) | IC50 [1, 3] [nM] | IC50 [1, 4] [nM] | IC50 [2] [nM]
COc1ccc(-c2ccc(NC(=O)C3(c4ccc(C)c(F)c4)CC3)cc2-c2nnn[nH]2)cc1OC [Example 12, N-[3′,4′-dimethoxy-2-(1H-tetrazol-5-yl)biphenyl-4-yl]-1-(3-fluoro-4-methylpheny) cyclopropane-carboxamide] | 56.4 | 18.1 | 39.3
COc1ccc(-c2ccc(NC(=O)C3(c4ccc(Cl)c(F)c4)CC3)cc2-c2nnn[nH]2)cc1OC [Example 16, 1-(4-chloro-3-fluorophenyl)-N-[3′,4′-dimethoxy-2-(1H-tetrazol-5-yl)biphenyl-4-yl]cyclopropane carboxamide] | – | 31.7 | 528
COc1ccc(-c2ccc(NC(=O)C3(c4cc(Cl)ccc4F)CC3)cc2-c2nnn[nH]2)cc1OC [Example 17, 1-(5-chloro-2-fluorophenyl)-N-[3′,4′-dimethoxy-2-(1H-tetrazol-5-yl)biphenyl-4-yl]cyclopropane carboxamide] | – | 68.5 | 263
COc1ccc(-c2ccc(NC(=O)C3(c4ccc(Cl)cc4F)CC3)cc2-c2nnn[nH]2)cc1OC [Example 18, 1-(4-chloro-2-fluorophenyl)-N-[3′,4′-dimethoxy-2-(1H-tetrazol-5-yl)biphenyl-4-yl]cyclopropane carboxamide] | – | 40.2 | 27.4
COc1ccc(-c2ccc(NC(=O)C3(c4ccc(Cl)cn4)CC3)cc2-c2nnn[nH]2)cc1OC [Example 23, 1-(5-chloropyridin-2-yl)-N-[3′,4′-dimethoxy-2-(1H-tetrazol-5-yl)biphenyl-4-yl]cyclopropane carboxamide] | 145 | 176 | 35.2
Cc1ccc(C2(C(=O)Nc3ccc(-n4cc(Cl)cn4)c(-c4nnn[nH]4)c3)CC2)c(F)c1 [Example 393, N-[4-(4-chloro-1H-pyrazol-1-yl)-3-(1H-tetrazol-5-yl)phenyl]-1-(2-fluoro-4-methylphenyl)cy-clopropanecar-boxamide] | 187 | – | –
O=C(Nc1ccc(-n2cc(Cl)cn2)c(-c2nnn[nH]2)c1)C1(c2ccc(C(F)(F)F)cc2F)CC1 [Example 394, N-[4-(4-chloro-1H-pyrazol-1-yl)-3-(1H-tetrazol-5-yl)phenyl]-1-[2-fluoro-4-(trifluoromethyl)phenyl]cyclopro-panecarboxamide] | 68.1 | – | –
O=C(Nc1ccc(-n2cc(Cl)cn2)c(-c2nnn[nH]2)c1)C1(c2ccc(OC(F)(F)F)cc2F)CC1 [Example 395, N-[4-(4-chloro-1H-pyrazol-1-yl)-3-(1H-tetrazol-5-yl)phenyl]-1-[2-fluoro-4-(trifluoromethoxy)phenyl]cyclo-propanecarboxa-mide] | 16.2 | – | –
CC(C)c1cnn(-c2ccc(NC(=O)C3(c4cccc(Cl)c4)CC3)cc2-c2nnn[nH]2)c1 [Example 396, 1-(3-chlorophenyl)-N-[4-(4-isopropyl-1H-pyrazol-1-yl)-3-(1H-tetrazol-5-yl)phenyl]cyclopro-panecarboxa-mide] | 30.7 | – | –
CC(C)c1cnn(-c2ccc(NC(=O)C3(c4ccc(F)c(F)c4)CC3)cc2-c2nnn[nH]2)c1 [Example 397, 1-(3,4-difluorophenyl)-N-[4-(4-isopropyl-1H-pyrazol-1-yl)-3-(1H-tetrazol-5-yl)phenyl]cyclopro-panecarboxa-mide] | 38.5 | – | –
Cc1ccc(C2(C(=O)Nc3ccc(-n4cc(C(C)C)cn4)c(-c4nnn[nH]4)c3)CC2)c(F)c1 [Example 398, 1-(2-fluoro-4-methylphenyl)-N-[4-(4-isopropyl-1H-pyrazol-1-yl)-3-(1H-tetrazol-5-yl)phenyl]cyclopro-panecarboxa-mide] | 20.6 | – | –
CC(C)(C)c1cn(-c2ccc(NC(=O)C3(c4cccc(Cl)c4)CC3)cc2-c2nnn[nH]2)cn1 [Example 400, N-[4-(4-tert-butyl-1H-imidazol-1-yl)-3-(1H-tetrazol-5-yl)phenyl]-1-(3-chlorophenyl)cy-clopropanecarbox-amide] | 25.4 | – | –
CC(C)(C)c1cn(-c2ccc(NC(=O)C3(c4ccc(F)c(F)c4)CC3)cc2-c2nnn[nH]2)cn1 [Example 401, N-[4-(4-tert-butyl-1H-imidazol-1-yl)-3-(1H-tetrazol-5-yl)phenyl]-1-(3,4-difluorophenyl)cy-clopropanecar-boxamide] | 34.5 | – | –
Cc1ccc(C2(C(=O)Nc3ccc(-n4cnc(C(C)(C)C)c4)c(-c4nnn[nH]4)c3)CC2)c(F)c1 [Example 402, N-[4-(4-tert-butyl-1H-imidazol-1-yl)-3-(1H-tetrazol-5-yl)phenyl]-1-(2-fluoro-4-methylphenyl)cy-clopropanecar-boxamide] | 25.3 | – | –
CC(C)(C)c1cn(-c2ccc(NC(=O)C3(c4ccc(C(F)(F)F)cc4F)CC3)cc2-c2nnn[nH]2)cn1 [Example 403, N-[4-(4-tert-butyl-1H-imidazol-1-yl)-3-(1H-tetrazol-5-yl)phenyl]-1-[2-fluoro-4-(trifluoromethyl)phenyl]cyclopro-panecarboxamide] | 20.6 | – | –
CCC1CCN(c2ccc(NC(=O)C3(c4cccc(Cl)c4)CC3)cc2-c2nnn[nH]2)C1=O (stereo not shown) [Example 405, 1-(3-chlorophenyl)-N-[4-(3-ethyl-2-oxopyrrolidin-1-yl)-3-(1H-tetrazol-5-yl)phenyl]cyclopro-panecarboxa-mide] | 1390 | – | –
CCC1CCN(c2ccc(NC(=O)C3(c4ccc(F)c(F)c4)CC3)cc2-c2nnn[nH]2)C1=O (stereo not shown) [Example 406, 1-(3,4-difluorophenyl)-N-[4-(3-ethyl-2-oxopyrrolidin-1-yl)-3-(1H-tetrazol-5-yl)phenyl]cyclopro-panecarboxa-mide] | 2160 | – | –
CCC1CCN(c2ccc(NC(=O)C3(c4ccc(C)cc4F)CC3)cc2-c2nnn[nH]2)C1=O (stereo not shown) [Example 407, N-[4-(3-ethyl-2-oxopyrrolidin-1-yl)-3-(1H-tetrazol-5-yl)phenyl]-1-(2-fluoro-4-methylphenyl)cy-clopropanecar-boxamide] | 474 | – | –
CCC1CCN(c2ccc(NC(=O)C3(c4ccc(C(F)(F)F)cc4F)CC3)cc2-c2nnn[nH]2)C1=O (stereo not shown) [Example 408, N-[4-(3-ethyl-2-oxopyrrolidin-1-yl)-3-(1H-tetrazol-5-yl)phenyl]-1-[2-fluoro-4-(trifluoromethyl)phenyl]cyclopro-panecarboxamide] | 131 | – | –
CCC1CCN(c2ccc(NC(=O)C3(c4ccc(OC(F)(F)F)cc4F)CC3)cc2-c2nnn[nH]2)C1=O (stereo not shown) [Example 409, N-[4-(3-ethyl-2-oxopyrrolidin-1-yl)-3-(1H-tetrazol-5-yl)phenyl]-1-[2-fluoro-4-(trifluoromethoxy)phenyl]cyclo-propanecarboxa-mide] | 54.7 | – | –
CC(C)(C)c1cnn(-c2ccc(NC(=O)C3(c4ccc(C(F)(F)F)cc4F)CC3)cc2-c2nnn[nH]2)c1 [Example 410, 1-[2-fluoro-4-(trifluoromethyl)phenyl]-N-[4-(4-tert-butyl-1H-pyrazol-1-yl)-3-(1H-tetrazol-5-yl)phenyl]cyclopro-panecarboxa-mide] | 6.05 | – | –
CC(C)(C)c1cnn(-c2ccc(NC(=O)C3(c4ccc(OC(F)(F)F)cc4F)CC3)cc2-c2nnn[nH]2)c1 [Example 411, 1-[2-fluoro-4-(trifluoromethoxy)phenyl]-N-[4-(4-tert-butyl-1H-pyrazol-1-yl)-3-(1H-tetrazol-5-yl)phenyl]cyclopro-pranecarboxa-mide] | 6.84 | – | –
O=C(Nc1ccc(-n2cnc(C(F)(F)F)n2)c(-c2nnn[nH]2)c1)C1(c2ccc(C(F)(F)F)cc2F)CC1 [Example 412, 1-[2-fluoro-4-(trifluoromethyl)phenyl]-N-{3-(1H-tetrazol-5-yl)-4-[3-(trifluoromethyl)-1H-1,2,4-triazol-1-yl]phenyl}cyclopro-panecarboxa-mide] | 504 | – | –
CC(C)c1cnn(-c2ccc(NC(=O)C3(c4ccc(OC(F)(F)F)cc4F)CC3)cc2-c2nnn[nH]2)c1 [Example 413, 1-[2-fluoro-4-(trifluoromethoxy)phenyl]-N-[4-(4-isopropyl-1H-pyrazol-1-yl)-3-(1H-tetrazol-5-yl)phenyl]cyclopro-panecarboxa-mide] | 5.84 | – | –
